According to patent US20250017940A1, “SELECTIVE PEPTIDOMIMETIC MODULATORS OF CAV2.2 (N-TYPE) VOLTAGE-GATED CALCIUM CHANNELS AND USES THEREOF” (New York University, priority 2023, published 2025):

Legend:
[1] = biological target: T1, Cav2.3 (R-type) calcium channels (Rattus norvegicus, UniProt Q07652); experiment: Whole-cell patch-clamp, isolated R-type Ca2+ currents in DRG neurons; format: cell-based
T1 construct: Recordings were obtained from acutely dissociated DRG neurons; endogenous in cells; host or cells: acutely dissociated rat DRG neurons
T1 sequence (Q07652 whole entry): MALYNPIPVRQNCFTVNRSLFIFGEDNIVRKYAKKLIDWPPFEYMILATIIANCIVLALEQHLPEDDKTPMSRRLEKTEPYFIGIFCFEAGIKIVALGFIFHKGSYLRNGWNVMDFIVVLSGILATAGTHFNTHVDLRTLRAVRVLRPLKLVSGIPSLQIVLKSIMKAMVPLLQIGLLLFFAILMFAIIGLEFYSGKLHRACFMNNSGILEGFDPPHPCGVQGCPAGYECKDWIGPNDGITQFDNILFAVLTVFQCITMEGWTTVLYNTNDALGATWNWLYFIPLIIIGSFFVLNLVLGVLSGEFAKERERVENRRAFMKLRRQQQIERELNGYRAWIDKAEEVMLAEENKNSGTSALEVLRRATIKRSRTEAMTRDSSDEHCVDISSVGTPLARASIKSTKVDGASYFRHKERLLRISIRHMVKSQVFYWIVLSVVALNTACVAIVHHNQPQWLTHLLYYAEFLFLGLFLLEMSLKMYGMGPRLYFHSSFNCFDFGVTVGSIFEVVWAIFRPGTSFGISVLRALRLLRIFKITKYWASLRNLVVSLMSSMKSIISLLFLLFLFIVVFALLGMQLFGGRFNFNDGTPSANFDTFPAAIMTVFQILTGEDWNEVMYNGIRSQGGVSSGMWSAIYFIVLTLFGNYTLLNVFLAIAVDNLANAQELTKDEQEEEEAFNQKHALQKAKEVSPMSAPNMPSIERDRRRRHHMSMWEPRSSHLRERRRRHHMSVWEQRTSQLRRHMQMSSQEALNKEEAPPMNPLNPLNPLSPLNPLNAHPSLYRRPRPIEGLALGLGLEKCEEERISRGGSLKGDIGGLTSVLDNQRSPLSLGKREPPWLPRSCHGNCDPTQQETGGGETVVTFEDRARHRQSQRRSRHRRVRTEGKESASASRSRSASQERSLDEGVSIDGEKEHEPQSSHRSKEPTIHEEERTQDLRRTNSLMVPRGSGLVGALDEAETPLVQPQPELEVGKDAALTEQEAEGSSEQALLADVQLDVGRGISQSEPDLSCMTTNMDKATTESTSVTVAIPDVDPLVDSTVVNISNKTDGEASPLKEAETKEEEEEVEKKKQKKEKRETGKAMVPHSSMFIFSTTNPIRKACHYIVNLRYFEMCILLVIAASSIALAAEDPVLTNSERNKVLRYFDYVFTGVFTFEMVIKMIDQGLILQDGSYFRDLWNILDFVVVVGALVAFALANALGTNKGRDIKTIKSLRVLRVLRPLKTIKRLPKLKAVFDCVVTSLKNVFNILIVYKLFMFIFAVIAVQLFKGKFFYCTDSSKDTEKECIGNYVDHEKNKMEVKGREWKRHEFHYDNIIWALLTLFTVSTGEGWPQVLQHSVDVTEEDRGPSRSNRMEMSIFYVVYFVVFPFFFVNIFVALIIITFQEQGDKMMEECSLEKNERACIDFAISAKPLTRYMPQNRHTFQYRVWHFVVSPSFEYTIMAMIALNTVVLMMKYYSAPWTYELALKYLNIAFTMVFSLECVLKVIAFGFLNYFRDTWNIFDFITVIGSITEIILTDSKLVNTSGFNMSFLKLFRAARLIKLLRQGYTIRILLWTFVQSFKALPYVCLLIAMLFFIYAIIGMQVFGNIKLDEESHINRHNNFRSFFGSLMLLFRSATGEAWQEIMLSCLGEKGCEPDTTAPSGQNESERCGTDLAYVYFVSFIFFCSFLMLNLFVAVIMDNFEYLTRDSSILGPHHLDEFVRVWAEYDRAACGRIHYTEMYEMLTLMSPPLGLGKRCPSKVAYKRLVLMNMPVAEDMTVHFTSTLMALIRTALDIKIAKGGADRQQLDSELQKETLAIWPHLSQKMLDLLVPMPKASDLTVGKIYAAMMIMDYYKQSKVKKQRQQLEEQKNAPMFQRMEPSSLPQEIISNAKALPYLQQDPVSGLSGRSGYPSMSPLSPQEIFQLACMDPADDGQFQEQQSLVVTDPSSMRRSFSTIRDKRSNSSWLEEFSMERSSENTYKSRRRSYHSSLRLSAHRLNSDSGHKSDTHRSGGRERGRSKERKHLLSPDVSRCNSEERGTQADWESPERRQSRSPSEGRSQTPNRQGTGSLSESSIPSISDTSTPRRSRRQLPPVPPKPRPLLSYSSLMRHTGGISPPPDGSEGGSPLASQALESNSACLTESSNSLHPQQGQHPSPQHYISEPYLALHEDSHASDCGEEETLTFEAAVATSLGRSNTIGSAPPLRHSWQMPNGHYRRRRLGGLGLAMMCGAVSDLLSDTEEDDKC
T1 sequence (P54290 25-1091 partner): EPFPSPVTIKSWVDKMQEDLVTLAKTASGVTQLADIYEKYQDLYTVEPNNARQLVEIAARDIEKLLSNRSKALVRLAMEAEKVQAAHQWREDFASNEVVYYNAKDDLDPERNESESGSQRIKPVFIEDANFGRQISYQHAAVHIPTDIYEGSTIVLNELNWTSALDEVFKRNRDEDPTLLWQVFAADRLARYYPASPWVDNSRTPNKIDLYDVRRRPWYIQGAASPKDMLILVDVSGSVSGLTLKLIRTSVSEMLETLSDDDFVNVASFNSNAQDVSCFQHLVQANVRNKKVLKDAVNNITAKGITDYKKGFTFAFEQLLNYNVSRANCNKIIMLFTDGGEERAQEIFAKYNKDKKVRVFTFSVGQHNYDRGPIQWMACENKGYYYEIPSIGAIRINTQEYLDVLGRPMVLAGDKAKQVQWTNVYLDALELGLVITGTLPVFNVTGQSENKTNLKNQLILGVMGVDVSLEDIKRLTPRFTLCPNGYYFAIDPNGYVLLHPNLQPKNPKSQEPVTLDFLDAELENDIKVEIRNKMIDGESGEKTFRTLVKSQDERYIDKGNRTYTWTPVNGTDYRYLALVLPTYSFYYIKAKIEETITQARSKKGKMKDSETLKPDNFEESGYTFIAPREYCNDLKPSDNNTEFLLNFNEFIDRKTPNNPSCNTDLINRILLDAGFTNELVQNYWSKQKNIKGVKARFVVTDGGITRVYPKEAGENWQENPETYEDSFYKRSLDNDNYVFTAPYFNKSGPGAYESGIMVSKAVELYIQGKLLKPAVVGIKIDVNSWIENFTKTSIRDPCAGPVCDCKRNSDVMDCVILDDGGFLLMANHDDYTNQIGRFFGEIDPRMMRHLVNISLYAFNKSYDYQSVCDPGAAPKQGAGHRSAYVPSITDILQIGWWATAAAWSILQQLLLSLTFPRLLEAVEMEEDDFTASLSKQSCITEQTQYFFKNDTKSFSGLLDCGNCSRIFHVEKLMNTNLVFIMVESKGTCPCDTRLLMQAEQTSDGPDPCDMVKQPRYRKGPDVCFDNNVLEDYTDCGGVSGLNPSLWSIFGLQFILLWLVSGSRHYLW
T1 sequence (P54287 whole entry partner): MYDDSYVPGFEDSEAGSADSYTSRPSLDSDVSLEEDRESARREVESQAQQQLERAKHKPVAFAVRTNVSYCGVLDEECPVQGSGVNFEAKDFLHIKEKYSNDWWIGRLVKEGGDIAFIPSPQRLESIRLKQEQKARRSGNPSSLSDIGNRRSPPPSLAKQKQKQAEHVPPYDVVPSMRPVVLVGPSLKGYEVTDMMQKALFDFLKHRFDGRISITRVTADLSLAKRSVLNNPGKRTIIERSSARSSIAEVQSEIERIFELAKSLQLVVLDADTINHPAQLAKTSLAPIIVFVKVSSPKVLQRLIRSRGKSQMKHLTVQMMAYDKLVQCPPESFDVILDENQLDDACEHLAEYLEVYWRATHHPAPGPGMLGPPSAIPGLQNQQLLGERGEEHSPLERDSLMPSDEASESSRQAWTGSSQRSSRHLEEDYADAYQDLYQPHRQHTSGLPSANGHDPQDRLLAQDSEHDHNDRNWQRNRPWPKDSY
Protocol: (§1) Recordings were obtained from acutely dissociated DRG neurons as described earlier (Bellampalli et al., 2019). Patch-clamp recordings were performed at room temperature (22-24° C.). Currents were recorded using an EPC 10 Amplifier-HEKA (HEKA Elektronik, Ludwigshafen, Germany) linked to a computer with Patchmaster software. DRG neurons were incubated overnight (˜16-24 hours) with 20 μM of CBD3063.
(§2) For total calcium current (ICa^2+) recordings, the external solution consisted of the following (in mM): 110 N-methyl-D-glucamine, 10 BaCl2, 30 TEA-Cl, 10 HEPES, 10 glucose, and 0.001 TTX (pH 7.29 adjusted with TEA-OH, and mOsm/L=310). Patch pipettes were filled with an internal solution containing (in mM): 150 CsCl2, 10 HEPES, 5 Mg-ATP, and 5 BAPTA, (pH 7.2 adjusted with CsOH, and mOsm/L-305). Peak Ca^2+ current was acquired by applying 200-millisecond voltage steps from −70 to +60 mV in 10-mV increments from a holding potential of −90 mV to obtain the current-voltage (I-V) relation. To measure the different subtypes of Ca^2+ channels, DRGs were treated with a Cav inhibitor cocktail omitting the inhibitor specific to the subtype being tested (e.g., to measure Cav2.2 currents, ω-conotoxin GVIA is omitted): Nifedipine (10 μM, L-type), ω-Conotoxin-GVIA (500 nM, […]) (Feng, et al., 2001), SNX482 (200 nM, R-type) (Newcomb et al., 1998), ω-agatoxin (200 nM, P/Q-type) (Mintz et al., 1992), TTA-P2 (1 μM, T-type) (Choe et al., 2011).
(§3) Normalization of currents to each cell's capacitance (pF) was performed to allow for collection of current density data. For I-V curves, functions were fitted to data using a non-linear least squares analysis. I-V curves were fitted using double Boltzmann functions:
(§4) where x is the pre-pulse potential, V1/2 is the mid-point potential, and k is the corresponding slope factor for single Boltzmann functions. Double Boltzmann fits were used to describe the shape of the curve, not to imply the existence of separate channel populations. Numbers 1 and 2 simply indicate first and second mid-points; a along with g are fitting parameters.
(§5) Activation curves were obtained from the I-V curves by dividing the peak current at each depolarizing step by the driving force according to the equation: G=I/(Vmem-Erev), where I is the peak current, Vmem is the membrane potential and Erev is the reversal potential. The conductance (G) was normalized against the maximum conductance (Gmax). For total and the different subtypes of Ca^2+ currents, steady-state inactivation (SSI) curves were obtained by applying an H-infinity protocol that consisted of 1.5-seconds conditioning pre-pulses from −100 to +30 mV in 10-mV increments followed by a 20-millisecond test pulse to +10 mV. For Na^+ currents, SSI curves were obtained by applying an H-infinity protocol that consisted of 1-second conditioning pre-pulses from −120 to +10 mV in 10-mV increments followed by a 200-millisecond test pulse to +10 mV. Inactivation curves were obtained by dividing the peak current recorded at the test pulse by the maximum current (Imax). Activation and SSI curves were fitted with the Boltzmann equation.

[2] = biological target: T2, Cav2.1 (P/Q-type) calcium channels (Rattus norvegicus, UniProt P54282); experiment: Whole-cell patch-clamp, isolated P/Q-type Ca2+ currents in DRG neurons; format: cell-based
T2 construct: Recordings were obtained from acutely dissociated DRG neurons; endogenous in cells; host or cells: acutely dissociated rat DRG neurons
Protocol: as §1, §2, §3, §4, §5

[3] = test system: voltage-gated potassium channels; experiment: Whole-cell patch-clamp, total potassium currents in DRG neurons; format: cell-based, rat; conditions: 20 μM (DMSO: 420.9±54.19)
Protocol: as §1
To isolate potassium currents (IK+), DRG neurons were bathed in external solution composed of (in millimolar): 140 N-methyl-glucamine chloride, 5 KCl, 1 MgCl2, 2 CaCl2, 10 D-glucose, and 10 HEPES (pH adjusted to 7.3 with KOH and mOsm/L=313). Recording pipettes were filled with internal solution containing (in mM): 140 KCl, 2.5 MgCl2, 4 Mg-ATP, 0.3 Na-GTP, 2.5 CaCl2), 5 EGTA, and 10 HEPES (pH adjusted to 7.3 with KOH and mOsm/L=320). From a holding potential of −60 mV, IK activation was determined by applying 300-millisecond voltage steps from −80 to +60 mV in 10-mV increments.
Normalization of currents to each cell's capacitance (pF) was performed to allow for collection of current density data. For I-V curves, functions were fitted to data using a non-linear least squares analysis. I-V curves were fitted using double Boltzmann functions: […]

[4] = biological target: T3, Cav2.2 (N-type) calcium channels (Rattus norvegicus, UniProt Q02294); experiment: Whole-cell patch-clamp, isolated N-type Ca2+ currents in DRG neurons; format: cell-based; conditions: for normalized peak N-type ICa2+ density: normalized to DMSO (1.00±0.07)
T3 construct: Recordings were obtained from acutely dissociated DRG neurons; endogenous in cells; host or cells: primary rat DRG neurons
Protocol: as §1, with “DRG neurons were incubated overnight (˜16-24 hours) with 20 μM of CBD3063.” left out
as §2, §3, §4, §5

[5] = 20 μM overnight, mean ± SEM (n cells)

CC(=O)N[C@@H]1CCCN(C(=O)NCCCNc2ccccn2)C1 [CBD3063, (3R)-3-acetamido-N-[3-(pyridin-2-ylamino)propyl]piperidine-1-carboxamide]
effect on Ca2+ influx through Cav2.3 (R-type) channels (current density-voltage curve, peak current density) ([1]; 20 μM overnight vs 0.1% DMSO): does not alter
R-type Ca2+ currents, activation V1/2 [1, 5]: −4.098 ± 0.693 (11) mV
R-type Ca2+ currents, activation k (slope factor) [1, 5]: 7.244 ± 0.579 (11)
R-type Ca2+ currents, inactivation V1/2 [1, 5]: −16.840 ± 2.186 (11) mV
R-type Ca2+ currents, inactivation k (slope factor) [1, 5]: −11.870 ± 1.850 (11)
effect on Ca2+ influx through Cav2.1 (P/Q-type) channels (current density-voltage curve, peak current density) ([2]; 20 μM overnight vs 0.1% DMSO): does not alter
P/Q-type Ca2+ currents, activation V1/2 [2, 5]: −3.265 ± 0.824 (7) mV
P/Q-type Ca2+ currents, activation k (slope factor) [2, 5]: 4.186 ± 0.663 (7)
P/Q-type Ca2+ currents, inactivation V1/2 [2, 5]: −18.667 ± 1.688 (7) mV
P/Q-type Ca2+ currents, inactivation k (slope factor) [2, 5]: −9.396 ± 1.470 (7)
peak potassium current density [3]: 422.1±52.70 pA/pF
normalized peak N-type ICa2+ density ([4]; 2 μM overnight): 0.93±1.07
peak N-type calcium current density ([4]; 20 μM overnight, +10 mV (DMSO: −104.00±11.32)): −69.18±6.54 pA/pF
decrease of N-type currents at peak current density ([4]; 20 μM overnight, +10 mV, vs control group): ~33.5%
N-type Ca2+ currents, activation V1/2 [4, 5]: −5.275 ± 0.669 (17) mV
N-type Ca2+ currents, activation k (slope factor) [4, 5]: 5.616 ± 0.566 (17)
N-type Ca2+ currents, inactivation V1/2 [4, 5]: −31.129 ± 2.169 (17) mV
N-type Ca2+ currents, inactivation k (slope factor) [4, 5]: −17.247 ± 2.104 (17)
normalized peak N-type ICa2+ density ([4]; 20 μM overnight): 0.74±0.04
normalized peak N-type ICa2+ density ([4]; 50 μM overnight): 0.65±0.06
